What was measured:
Assay type in all cases: functional, cell-based
[1] = molecular target: T1, Taste receptor type 2 member 1 (Homo sapiens, UniProt Q9NYW7); assay: (§1) Activation of full-length human TAS2R1 expressed in HEK293T/Galpha16-gustducin 44 cells assessed as effect on calcium flux by measuring deltaF/F0 ratio by Fluo-4 dye based FLIPR assay
T1 sequence (Q9NYW7 whole entry): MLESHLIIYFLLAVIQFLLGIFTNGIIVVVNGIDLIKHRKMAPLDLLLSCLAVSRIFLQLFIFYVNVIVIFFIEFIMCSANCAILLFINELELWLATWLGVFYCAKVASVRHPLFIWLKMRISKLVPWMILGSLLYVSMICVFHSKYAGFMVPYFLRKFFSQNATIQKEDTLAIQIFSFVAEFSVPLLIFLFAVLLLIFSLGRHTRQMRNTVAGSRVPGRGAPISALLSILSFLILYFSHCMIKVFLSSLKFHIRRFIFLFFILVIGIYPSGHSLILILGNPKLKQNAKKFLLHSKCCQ

[2] = molecular target: T2, Taste receptor type 2 member 1 (Homo sapiens) (UniProt Q9NYW7); assay: as §1
T2 sequence (whole entry): T1 sequence (Q9NYW7 whole entry)

[3] = molecular target: T3, Taste receptor type 2 member 10 (Homo sapiens) (UniProt Q9NYW0); assay: Activation of full-length human TAS2R10 expressed in HEK293T/Galpha16-gustducin 44 cells assessed as effect on calcium flux by measuring deltaF/F0 ratio by Fluo-4 dye based FLIPR assay
T3 sequence (whole entry): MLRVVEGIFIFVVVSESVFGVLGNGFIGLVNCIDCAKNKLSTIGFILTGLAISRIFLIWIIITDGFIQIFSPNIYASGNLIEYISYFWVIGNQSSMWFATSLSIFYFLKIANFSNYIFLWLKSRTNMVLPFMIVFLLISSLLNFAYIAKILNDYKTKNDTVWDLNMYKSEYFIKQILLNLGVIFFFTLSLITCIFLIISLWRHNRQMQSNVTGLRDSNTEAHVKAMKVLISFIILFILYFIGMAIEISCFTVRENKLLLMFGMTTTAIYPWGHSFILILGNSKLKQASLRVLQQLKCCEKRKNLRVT

[4] = molecular target: T4, Taste receptor type 2 member 31 (Homo sapiens) (UniProt P59538); assay: Activation of full-length human TAS2R44 expressed in HEK293T/Galpha16-gustducin 44 cells assessed as effect on calcium flux by measuring deltaF/F0 ratio at 100 mM by Fluo-4 dye based FLIPR assay (reference value: 0.021 +/ - 0.012)
T4 sequence (whole entry): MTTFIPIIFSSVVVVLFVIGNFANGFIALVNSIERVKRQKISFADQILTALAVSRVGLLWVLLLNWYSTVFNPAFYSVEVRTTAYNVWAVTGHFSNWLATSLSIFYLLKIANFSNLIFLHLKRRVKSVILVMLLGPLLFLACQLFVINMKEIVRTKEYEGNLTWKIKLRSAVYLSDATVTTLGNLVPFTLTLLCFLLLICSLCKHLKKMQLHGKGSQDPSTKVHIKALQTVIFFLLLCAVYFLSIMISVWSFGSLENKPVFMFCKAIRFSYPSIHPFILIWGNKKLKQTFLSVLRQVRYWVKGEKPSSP

[5] = molecular target: T5, Taste receptor type 2 member 31 (Homo sapiens, UniProt P59538); assay: Agonist activity at full-length human TAS2R44 expressed in HEK293T/Galpha16-gustducin 44 cells assessed as effect on calcium flux by measuring deltaF/F0 ratio by Fluo-4 dye based FLIPR assay
T5 sequence (P59538 whole entry): T4 sequence (whole entry)

[6] = molecular target: T6, Taste receptor type 2 member 46 (Homo sapiens) (UniProt P59540); assay: Activation of full-length human TAS2R46 expressed in HEK293T/Galpha16-gustducin 44 cells assessed as effect on calcium flux by measuring deltaF/F0 ratio at 3.125 mM by Fluo-4 dye based FLIPR assay
T6 sequence (whole entry): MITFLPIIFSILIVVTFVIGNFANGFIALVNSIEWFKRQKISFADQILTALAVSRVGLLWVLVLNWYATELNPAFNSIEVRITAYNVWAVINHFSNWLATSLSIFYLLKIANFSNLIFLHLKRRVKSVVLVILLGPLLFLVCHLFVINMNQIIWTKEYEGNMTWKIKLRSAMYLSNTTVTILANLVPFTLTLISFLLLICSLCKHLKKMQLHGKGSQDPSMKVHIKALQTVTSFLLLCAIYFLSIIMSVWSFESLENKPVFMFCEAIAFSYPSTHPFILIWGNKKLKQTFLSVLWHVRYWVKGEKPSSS

[7] = molecular target: T2, Taste receptor type 2 member 1 (Homo sapiens); assay: Activation of full-length human TAS2R1 expressed in HEK293T/Galpha16-gustducin 44 cells assessed as effect on calcium flux by measuring deltaF/F0 ratio at 0.3906 mM by Fluo-4 dye based FLIPR assay
[8] = molecular target: T4, Taste receptor type 2 member 31 (Homo sapiens); assay: Activation of full-length human TAS2R44 expressed in HEK293T/Galpha16-gustducin 44 cells assessed as effect on calcium flux by measuring deltaF/F0 ratio at 0.7813 mM by Fluo-4 dye based FLIPR assay (reference value: […] +/ - 0.002)
[9] = molecular target: T3, Taste receptor type 2 member 10 (Homo sapiens); assay: Activation of full-length human TAS2R10 expressed in HEK293T/Galpha16-gustducin 44 cells assessed as effect on calcium flux by measuring deltaF/F0 ratio at 3.125 mM by Fluo-4 dye based FLIPR assay
[10] = molecular target: T2, Taste receptor type 2 member 1 (Homo sapiens); assay: Activation of full-length human TAS2R1 expressed in HEK293T/Galpha16-gustducin 44 cells assessed as effect on calcium flux by measuring deltaF/F0 ratio at 25 mM by Fluo-4 dye based FLIPR assay
[11] = molecular target: T6, Taste receptor type 2 member 46 (Homo sapiens); assay: Activation of full-length human TAS2R46 expressed in HEK293T/Galpha16-gustducin 44 cells assessed as effect on calcium flux by measuring deltaF/F0 ratio at 1.5625 mM by Fluo-4 dye based FLIPR assay
[12] = molecular target: T3, Taste receptor type 2 member 10 (Homo sapiens); assay: Activation of full-length human TAS2R10 expressed in HEK293T/Galpha16-gustducin 44 cells assessed as effect on calcium flux by measuring deltaF/F0 ratio at 12.5 mM by Fluo-4 dye based FLIPR assay
[13] = molecular target: T3, Taste receptor type 2 member 10 (Homo sapiens); assay: Activation of full-length human TAS2R10 expressed in HEK293T/Galpha16-gustducin 44 cells assessed as effect on calcium flux by measuring deltaF/F0 ratio at 1.5625 mM by Fluo-4 dye based FLIPR assay
[14] = molecular target: T2, Taste receptor type 2 member 1 (Homo sapiens); assay: Activation of full-length human TAS2R1 expressed in HEK293T/Galpha16-gustducin 44 cells assessed as effect on calcium flux by measuring deltaF/F0 ratio at 50 mM by Fluo-4 dye based FLIPR assay
[15] = molecular target: T4, Taste receptor type 2 member 31 (Homo sapiens); assay: Activation of full-length human TAS2R44 expressed in HEK293T/Galpha16-gustducin 44 cells assessed as effect on calcium flux by measuring deltaF/F0 ratio at 3.125 mM by Fluo-4 dye based FLIPR assay (reference value: […] +/ - 0.001)
[16] = molecular target: T4, Taste receptor type 2 member 31 (Homo sapiens); assay: Activation of full-length human TAS2R44 expressed in HEK293T/Galpha16-gustducin 44 cells assessed as effect on calcium flux by measuring deltaF/F0 ratio at 0.3906 mM by Fluo-4 dye based FLIPR assay (reference value: […] +/ - 0.002)
[17] = molecular target: T6, Taste receptor type 2 member 46 (Homo sapiens); assay: Activation of full-length human TAS2R46 expressed in HEK293T/Galpha16-gustducin 44 cells assessed as effect on calcium flux by measuring deltaF/F0 ratio at 12.5 mM by Fluo-4 dye based FLIPR assay

## OC[C@H]1O[C@H](O[C@]2(CCl)O[C@H](CCl)[C@@H](O)[C@@H]2O)[C@H](O)[C@@H](O)[C@H]1Cl [SUCRALOSE]
[1]
  EC50: 36.3 mM
[2]
  Activity: Dose-dependent effect
[3]
  Activity: Dose-dependent effect
[4]
  Ratio: 0.26
[5]
  EC50: 16.7 mM
[6]
  Ratio: 0.036
[7]
  Ratio: 0.052
[8]
  Ratio: 0.025
[9]
  Ratio: 0.053
[10]
  Ratio: 0.104
[11]
  Ratio: 0.035
[12]
  Ratio: 0.059
[13]
  Ratio: 0.047
[14]
  Ratio: 0.197
[15]
  Ratio: 0.043
[16]
  Ratio: 0.023
[17]
  Ratio: 0.075

— ChEMBL document CHEMBL4417621, “Methods to identify tas2r modulators” (2013)
